The target in the assay is T1, F508del (Homo sapiens, UniProt P13569, DEL508-508).
T1 construct: expressed in transfected cells
T1 sequence (P13569 with tags, fused parts or gaps DEL508-508): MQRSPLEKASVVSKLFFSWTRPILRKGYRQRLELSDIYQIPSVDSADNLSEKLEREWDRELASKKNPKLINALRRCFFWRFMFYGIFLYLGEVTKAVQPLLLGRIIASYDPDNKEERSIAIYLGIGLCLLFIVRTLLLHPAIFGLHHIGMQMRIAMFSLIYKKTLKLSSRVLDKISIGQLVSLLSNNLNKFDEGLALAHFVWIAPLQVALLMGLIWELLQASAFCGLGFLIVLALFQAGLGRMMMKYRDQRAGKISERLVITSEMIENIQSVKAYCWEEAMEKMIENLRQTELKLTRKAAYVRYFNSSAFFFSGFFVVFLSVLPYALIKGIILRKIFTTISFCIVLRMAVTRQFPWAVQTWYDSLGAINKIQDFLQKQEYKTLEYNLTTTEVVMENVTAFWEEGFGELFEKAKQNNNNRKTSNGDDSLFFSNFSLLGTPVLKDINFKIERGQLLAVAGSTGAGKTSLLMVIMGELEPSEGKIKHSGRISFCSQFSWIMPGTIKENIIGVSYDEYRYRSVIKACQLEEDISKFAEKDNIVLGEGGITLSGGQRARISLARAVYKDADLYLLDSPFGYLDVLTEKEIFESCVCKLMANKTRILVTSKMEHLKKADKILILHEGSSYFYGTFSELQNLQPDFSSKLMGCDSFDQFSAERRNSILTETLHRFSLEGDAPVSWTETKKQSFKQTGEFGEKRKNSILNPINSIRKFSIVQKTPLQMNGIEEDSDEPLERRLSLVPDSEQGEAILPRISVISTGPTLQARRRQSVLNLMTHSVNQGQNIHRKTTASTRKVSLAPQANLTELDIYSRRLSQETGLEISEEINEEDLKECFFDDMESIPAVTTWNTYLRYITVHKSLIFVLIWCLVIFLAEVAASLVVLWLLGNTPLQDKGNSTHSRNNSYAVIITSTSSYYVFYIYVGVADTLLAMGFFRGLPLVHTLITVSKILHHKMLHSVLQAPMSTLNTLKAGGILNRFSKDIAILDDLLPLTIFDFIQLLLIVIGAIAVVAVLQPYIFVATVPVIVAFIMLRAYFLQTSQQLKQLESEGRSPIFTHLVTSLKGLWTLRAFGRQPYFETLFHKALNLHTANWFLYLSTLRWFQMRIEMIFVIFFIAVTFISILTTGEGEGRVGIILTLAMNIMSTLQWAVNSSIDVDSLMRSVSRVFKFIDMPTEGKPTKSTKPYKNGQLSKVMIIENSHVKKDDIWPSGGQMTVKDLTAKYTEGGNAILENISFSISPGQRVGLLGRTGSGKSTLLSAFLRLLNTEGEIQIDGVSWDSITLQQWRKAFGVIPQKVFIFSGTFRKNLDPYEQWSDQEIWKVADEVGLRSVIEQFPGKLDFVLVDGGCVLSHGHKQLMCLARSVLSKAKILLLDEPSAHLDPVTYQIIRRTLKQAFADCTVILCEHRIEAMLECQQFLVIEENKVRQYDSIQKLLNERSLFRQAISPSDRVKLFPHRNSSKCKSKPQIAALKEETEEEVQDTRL
Nature of the assay: Protocol 1: membrane potential optical assay (FLIPR III, voltage sensing dye), identification of potentiator compounds. The format is cell-based. Particulars: Table 3, compounds of Table 1. The procedure, abridged:
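Read-out: change in voltage-sensing dye fluorescence (FLIPR III) as a measure of F508del conductance. Temperature-corrected (27° C, 24 hrs) NIH 3T3 cells expressing F508del are pretreated with potentiators, dye-loaded, then stimulated with forskolin under a chloride ion gradient using chloride-free gluconate bath.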
As to `CC(C)Oc1ccc(-c2ccc(C(=O)NS(=O)(=O)c3cccc(N)n3)c(N3CCC[C@H]3C(F)(F)F)n2)cn1` [Compound 1248, N-[(6-amino-2-pyridyl)sulfonyl]-6-(6-isopropoxy-3-pyridyl)-2-[(2S)-2-(trifluoromethyl)pyrrolidin-1-yl]pyridine-3-carboxamide], the EC30 result is on record as “+++ (“+++” means <3 uM)”.

`COCC1CCCN(c2cccc(S(=O)(=O)NC(=O)c3cccnc3N3CC(C)CC3(C)C)n2)C1` (stereo not drawn) [Compound 1805, N—[[6-[3-(methoxymethyl)-1-piperidyl]-2-pyridyl]sulfonyl]-2-(2,2,4-trimethylpyrrolidin-1-yl)pyridine-3-carboxamide]: the EC30 entry is “++ (“++” means between 3 uM and 10 uM)”.

For `CCCCCN1CCN(c2cccc(S(=O)(=O)NC(=O)c3cccnc3N3CC(C)CC3(C)C)n2)CC1` (stereo not drawn) [Compound 1985, N—[[6-(4-pentylpiperazin-1-yl)-2-pyridyl]sulfonyl]-2-(2,2,4-trimethylpyrrolidin-1-yl)pyridine-3-carboxamide], the EC30 entry is “++ (“++” means between 3 uM and 10 uM)”.

For `COc1cccc(F)c1-c1ccc(C(=O)NS(=O)(=O)c2cccc(N)n2)c(Oc2c(C)cc(C)cc2C)n1` [Compound 920, N-[(6-amino-2-pyridyl)sulfonyl]-6-(2-fluoro-6-methoxy-phenyl)-2-(2,4,6-trimethylphenoxy)pyridine-3-carboxamide], the EC30 entry is on record as “+++ (“+++” means <3 uM)”.

For `CCOc1ccc(F)c(-c2ccc(C(=O)NS(=O)(=O)c3ccc[nH]c3=O)c(Oc3c(C)cc(C)cc3C)n2)c1` [Compound 1301, 6-(5-ethoxy-2-fluoro-phenyl)-N-[(2-oxo-1H-pyridin-3-yl)sulfonyl]-2-(2,4,6-trimethylphenoxy)pyridine-3-carboxamide], the EC30 result was “++ (“++” means between 3 uM and 10 uM)”.

As to `CCOc1cccc2c1CN(Cc1c(C)cc(C)cc1C)C2(C)C(=O)NS(=O)(=O)c1ccc(Cl)c(N)c1` (stereo not drawn) [Compound 1587, N-(3-amino-4-chloro-phenyl)sulfonyl-4-ethoxy-1-methyl-2-[(2,4,6-trimethylphenyl)methyl]isoindoline-1-carboxamide], the EC30 entry is “+++ (“+++” means <3 uM)”.

As for `COCC1CCCN(c2nc(-c3ccc(OC(C)C)nc3)ccc2C(=O)NS(=O)(=O)c2cccc(N)n2)C1` (stereo not drawn) [Compound 1116, N-[(6-amino-2-pyridyl)sulfonyl]-6-(6-isopropoxy-3-pyridyl)-2-[3-(methoxymethyl)-1-piperidyl]pyridine-3-carboxamide], the EC30 entry was “++ (“++” means between 3 uM and 10 uM)”.

With `C[C@@H]1CN(c2nc(-c3ccc(C(F)(F)F)cc3)ccc2C(=O)NS(=O)(=O)c2ccc[nH]c2=O)C(C)(C)C1` [Compound 1799, N-[(2-oxo-1H-pyridin-3-yl)sulfonyl]-6-[4-(trifluoromethyl)phenyl]-2-[(4S)-2,2,4-trimethylpyrrolidin-1-yl]pyridine-3-carboxamide], the EC30 entry is on record as “+++ (“+++” means <3 uM)”.

As for `CC(C)COc1ccc(F)c(-c2ccc(C(=O)NS(=O)(=O)c3cccc(N)n3)c(N3CC(C)CC3(C)C)n2)c1` (stereo not drawn) [Compound 1194, N-[(6-amino-2-pyridyl)sulfonyl]-6-(2-fluoro-5-isobutoxy-phenyl)-2-(2,2,4-trimethylpyrrolidin-1-yl)pyridine-3-carboxamide], the EC30 entry is on record as “+++ (“+++” means <3 uM)”.

Consider `Cc1cc(C)c(Oc2nc(C3CCCCC3)ccc2C(=O)NS(=O)(=O)c2ccc[nH]c2=O)c(C)c1` [Compound 1357, 6-cyclohexyl-N-[(2-oxo-1H-pyridin-3-yl)sulfonyl]-2-(2,4,6-trimethylphenoxy)pyridine-3-carboxamide], for which the EC30 result was “+++ (“+++” means <3 uM)”.

For `COC1CCN(c2nc(C(C)(C)C)ccc2C(=O)NS(=O)(=O)c2ccc(N)cc2)CC1` [Compound 1298, N-(4-aminophenyl)sulfonyl-6-tert-butyl-2-(4-methoxy-1-piperidyl)pyridine-3-carboxamide], the EC30 result was “++ (“++” means between 3 uM and 10 uM)”.

`CC(C)COc1cc(F)cc(-c2ccc(C(=O)NS(=O)(=O)c3cccc(N)n3)c(C3=CC(C)(C)CC3(C)C)n2)c1` [Compound 1502, N-[(6-amino-2-pyridyl)sulfonyl]-6-(3-fluoro-5-isobutoxy-phenyl)-2-(3,3,5,5-tetramethylcyclopenten-1-yl)pyridine-3-carboxamide]: the EC30 entry was “+++ (“+++” means <3 uM)”.

Consider `CC(C)(C)c1ccc(C(=O)NS(=O)(=O)c2cccc(N)n2)c(N2CC3CC(C3)C2)n1` [Compound 1401, N-[(6-amino-2-pyridyl)sulfonyl]-2-(3-azabicyclo[3.1.1]heptan-3-yl)-6-tert-butyl-pyridine-3-carboxamide], for which the EC30 entry is on record as “+++ (“+++” means <3 uM)”.

Regarding `CC(C)COc1cccc(-c2ccc(C(=O)NS(=O)(=O)c3cccc(N)n3)c(N3CCCC3(C)C)n2)n1` [Compound 1011, N-[(6-amino-2-pyridyl)sulfonyl]-2-(2,2-dimethylpyrrolidin-1-yl)-6-(6-isobutoxy-2-pyridyl)pyridine-3-carboxamide], the EC30 entry is “+++ (“+++” means <3 uM)”.

As for `CCOc1cncc(-c2ccc(C(=O)NS(=O)(=O)c3cccc(N)n3)c(N3CC(C)CC3(C)C)n2)n1` (stereo not drawn) [Compound 1252, N-[(6-amino-2-pyridyl)sulfonyl]-6-(6-ethoxypyrazin-2-yl)-2-(2,2,4-trimethylpyrrolidin-1-yl)pyridine-3-carboxamide], the EC30 entry is reported as “+++ (“+++” means <3 uM)”.

`Cc1cc(C)c(CN2Cc3ccccc3CCC2C(=O)NS(=O)(=O)c2ccc[nH]c2=O)c(C)c1` (stereo not drawn) [Compound 855, N-[(2-oxo-1H-pyridin-3-yl)sulfonyl]-2-[(2,4,6-trimethylphenyl)methyl]-1,3,4,5-tetrahydro-2-benzazepine-3-carboxamide]: the EC30 result is “+ (“+” means greater than 10 uM)”.

As to `CC(C)COc1cc(F)cc(-c2ccc(C(=O)NS(=O)(=O)c3ccn[nH]3)c(N3CCC[C@@H](c4ccccc4)C3)n2)c1` [Compound 912, 6-(3-fluoro-5-isobutoxy-phenyl)-2-[(3S)-3-phenyl-1-piperidyl]-N-(1H-pyrazol-5-ylsulfonyl)pyridine-3-carboxamide], the EC30 entry is “+++ (“+++” means <3 uM)”.

As to `CC1CN(c2ncccc2C(=O)NS(=O)(=O)c2cccc(Nc3ccc(C(C)C)cc3)n2)C(C)(C)C1` (stereo not drawn) [Compound 1722, N—[[6-(4-isopropylanilino)-2-pyridyl]sulfonyl]-2-(2,2,4-trimethylpyrrolidin-1-yl)pyridine-3-carboxamide], the EC30 result is “+++ (“+++” means <3 uM)”.

In the case of `Cc1ccnc(-c2ccc(C(=O)NS(=O)(=O)c3cccc(N)n3)c(Oc3c(C)cc(C)cc3C)n2)c1` [Compound 1272, N-[(6-amino-2-pyridyl)sulfonyl]-6-(4-methyl-2-pyridyl)-2-(2,4,6-trimethylphenoxy)pyridine-3-carboxamide], the EC30 entry is “+++ (“+++” means <3 uM)”.

With `COc1ccc(C(=O)NS(=O)(=O)c2cccc(N)n2)c(N2C[C@@H](C)CC2(C)C)n1` [Compound 1536, N-[(6-amino-2-pyridyl)sulfonyl]-6-methoxy-2-[(4S)-2,2,4-trimethylpyrrolidin-1-yl]pyridine-3-carboxamide], the EC30 entry was “++ (“++” means between 3 uM and 10 uM)”.

With `CC(C)COc1cc(F)cc(-c2ccc(C(=O)NS(=O)(=O)c3cccc(N)c3)c(N3CCC(C)(C)CC3)n2)c1` [Compound 1014, N-(3-aminophenyl)sulfonyl-2-(4,4-dimethyl-1-piperidyl)-6-(3-fluoro-5-isobutoxy-phenyl)pyridine-3-carboxamide], the EC30 entry was “+++ (“+++” means <3 uM)”.

As for `CCCOc1cc(-c2ccc(C(=O)NS(=O)(=O)c3ccn[nH]3)c(N3[C@H](C)CC[C@@H]3C)n2)ccc1Cl` [Compound 832, 6-(4-chloro-3-propoxy-phenyl)-2-[(2R,5S)-2,5-dimethylpyrrolidin-1-yl]-N-(1H-pyrazol-5-ylsulfonyl)pyridine-3-carboxamide], the EC30 result is “+++ (“+++” means <3 uM)”.

Regarding `Cc1nc(N(C)CC(C)C)ccc1-c1ccc(C(=O)NS(=O)(=O)c2cccc(N)n2)c(N2CC(C)CC2(C)C)n1` (stereo not drawn) [Compound 827, N-[(6-amino-2-pyridyl)sulfonyl]-6-[6-[isobutyl(methyl)amino]-2-methyl-3-pyridyl]-2-(2,2,4-trimethylpyrrolidin-1-yl)pyridine-3-carboxamide], the EC30 result is on record as “+++ (“+++” means <3 uM)”.

As to `CC(C)COc1cc(F)cc(-c2ccc(C(=O)NS(=O)(=O)c3cccc(N)n3)c(N3CCC(C)(C)[C@@H]3C)n2)c1` [Compound 1144, N-[(6-amino-2-pyridyl)sulfonyl]-6-(3-fluoro-5-isobutoxy-phenyl)-2-[(2S)-2,3,3-trimethylpyrrolidin-1-yl]pyridine-3-carboxamide], the EC30 entry was “+++ (“+++” means <3 uM)”.

As for `CC(C)COc1cc(F)cc(-c2ccc(C(=O)NS(=O)(=O)c3ccn[nH]3)c(N3CCCC(C(F)(F)F)C3)n2)c1` (stereo not drawn) [Compound 907, 6-(3-fluoro-5-isobutoxy-phenyl)-N-(1H-pyrazol-5-ylsulfonyl)-2-[3-(trifluoromethyl)-1-piperidyl]pyridine-3-carboxamide], the EC30 result is given as “+++ (“+++” means <3 uM)”.

As to `Cc1cc(C)c(Oc2nc(-c3ccc(C)c(F)c3)ccc2C(=O)NS(=O)(=O)c2cccc(N)n2)c(C)c1` [Compound 1000, N-[(6-amino-2-pyridyl)sulfonyl]-6-(3-fluoro-4-methyl-phenyl)-2-(2,4,6-trimethylphenoxy)pyridine-3-carboxamide], the EC30 entry was “+++ (“+++” means <3 uM)”.

As to `CCOCCOc1cc(-c2ccc(C(=O)NS(=O)(=O)c3cccc(N)n3)c(N3C[C@@H](C)CC3(C)C)n2)cc(C)n1` [Compound 1948, N-[(6-amino-2-pyridyl)sulfonyl]-6-[2-(2-ethoxyethoxy)-6-methyl-4-pyridyl]-2-[(4S)-2,2,4-trimethylpyrrolidin-1-yl]pyridine-3-carboxamide], the EC30 result is given as “+++ (“+++” means <3 uM)”.
